The record followed here is publication PMC11170969, “Photoaffinity probe‐based antimalarial target identification of artemisinin in the intraerythrocytic developmental cycle of Plasmodium falciparum” (iMeta, 2024).

One assay deals with T1, PfEGF1‐α (Plasmodium falciparum, UniProt Q8I0P6).
T1 construct: gene PF3D7_1357000; recombinant, pET-28a(+), E. coli BL21(DE3), Ni-NTA
T1 sequence (Q8I0P6 1-443): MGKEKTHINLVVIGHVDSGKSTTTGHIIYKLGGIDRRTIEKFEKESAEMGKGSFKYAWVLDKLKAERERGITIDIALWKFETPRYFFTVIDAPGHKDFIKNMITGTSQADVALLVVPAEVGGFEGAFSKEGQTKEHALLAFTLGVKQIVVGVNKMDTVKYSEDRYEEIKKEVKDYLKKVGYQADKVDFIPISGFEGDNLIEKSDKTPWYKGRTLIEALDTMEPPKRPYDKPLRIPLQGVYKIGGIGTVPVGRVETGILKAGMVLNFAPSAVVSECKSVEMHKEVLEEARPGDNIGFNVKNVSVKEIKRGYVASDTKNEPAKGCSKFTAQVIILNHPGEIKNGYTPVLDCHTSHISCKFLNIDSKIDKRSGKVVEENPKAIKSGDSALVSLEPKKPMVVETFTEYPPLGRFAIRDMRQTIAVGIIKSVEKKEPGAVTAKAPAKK
The experiment in a line: DARTS; competition with APP photolabelling. It is filed as binding. The note with it: DARTS: 5 μM protein, room temperature, 2 h, pronase; competition: 10 μM ATS.

A further assay deals with T2, PfGAPDH (Plasmodium falciparum, UniProt Q8IKK7).
T2 construct: gene PF3D7_1462800; recombinant, pET-28a(+), E. coli BL21(DE3), Ni-NTA
T2 sequence (Q8IKK7 entry or part of it): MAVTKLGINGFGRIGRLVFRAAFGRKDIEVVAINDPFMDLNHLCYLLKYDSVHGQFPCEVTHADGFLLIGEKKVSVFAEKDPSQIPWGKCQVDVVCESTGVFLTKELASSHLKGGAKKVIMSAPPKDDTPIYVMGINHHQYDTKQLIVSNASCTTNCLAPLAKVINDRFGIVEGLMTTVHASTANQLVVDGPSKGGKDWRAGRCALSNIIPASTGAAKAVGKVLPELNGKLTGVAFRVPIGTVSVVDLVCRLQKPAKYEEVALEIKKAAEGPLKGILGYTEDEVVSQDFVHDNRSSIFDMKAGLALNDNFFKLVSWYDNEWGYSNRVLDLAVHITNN
As to the kind of experiment: enzyme activity inhibition. It is filed as biochemical. To be noted: binding also shown by DARTS; activity assay conditions not stated in main text; covalent Glu59 adduct suggested by MS in a separate test with hemin and ascorbate.

The next assay has as its target T3, PfOAT (Plasmodium falciparum, UniProt Q6LFH8).
T3 construct: gene OAT; recombinant, pET-28a(+), E. coli BL21(DE3), Ni-NTA
T3 sequence (Q6LFH8 1-414): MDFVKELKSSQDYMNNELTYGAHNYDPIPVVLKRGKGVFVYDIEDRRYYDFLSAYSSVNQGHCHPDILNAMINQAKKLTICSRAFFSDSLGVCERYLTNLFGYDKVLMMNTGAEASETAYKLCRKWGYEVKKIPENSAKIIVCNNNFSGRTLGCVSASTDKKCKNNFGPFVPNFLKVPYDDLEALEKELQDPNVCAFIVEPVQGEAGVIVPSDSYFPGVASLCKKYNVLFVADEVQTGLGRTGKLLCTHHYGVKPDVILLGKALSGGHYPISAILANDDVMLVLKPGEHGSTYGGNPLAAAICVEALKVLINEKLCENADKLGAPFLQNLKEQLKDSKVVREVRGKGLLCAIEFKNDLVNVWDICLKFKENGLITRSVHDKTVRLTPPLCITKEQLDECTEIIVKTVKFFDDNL
The experiment in a line: OAT activity assay kit, absorbance at […] nm. It is filed as biochemical. To be noted: without heme activation (also tested with heme activation); 1 h preincubation; methods name the inhibitor ART, 0-80 μM.

For a further assay, the target named is T4, PfLDH (Plasmodium falciparum, UniProt Q76NM3).
T4 construct: gene PF3D7_1324900; recombinant, pET-28a(+), E. coli BL21(DE3), Ni-NTA
T4 sequence (Q76NM3 1-316): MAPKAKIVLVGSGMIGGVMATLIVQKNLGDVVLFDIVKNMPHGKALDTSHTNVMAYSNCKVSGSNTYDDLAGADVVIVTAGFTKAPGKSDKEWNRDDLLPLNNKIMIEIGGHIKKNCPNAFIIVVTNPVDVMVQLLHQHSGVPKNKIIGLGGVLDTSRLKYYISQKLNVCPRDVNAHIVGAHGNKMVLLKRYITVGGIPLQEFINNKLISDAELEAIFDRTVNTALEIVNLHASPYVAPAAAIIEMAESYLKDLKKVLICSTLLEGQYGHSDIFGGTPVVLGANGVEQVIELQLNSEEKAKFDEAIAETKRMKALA
The experiment in a line: enzyme activity inhibition. The note with it: binding also shown by DARTS; activity assay conditions not stated in main text. It is filed as biochemical.

The next assay addresses T5, PfTIM (Plasmodium falciparum, UniProt Q7KQM0).
T5 construct: gene TPI; recombinant, pET-28a(+), E. coli BL21(DE3), Ni-NTA
The experiment in a line: enzyme activity inhibition. It is filed as biochemical. To be noted: binding also shown by DARTS; activity assay conditions not stated in main text.

T5 sequence (Q7KQM0 whole entry): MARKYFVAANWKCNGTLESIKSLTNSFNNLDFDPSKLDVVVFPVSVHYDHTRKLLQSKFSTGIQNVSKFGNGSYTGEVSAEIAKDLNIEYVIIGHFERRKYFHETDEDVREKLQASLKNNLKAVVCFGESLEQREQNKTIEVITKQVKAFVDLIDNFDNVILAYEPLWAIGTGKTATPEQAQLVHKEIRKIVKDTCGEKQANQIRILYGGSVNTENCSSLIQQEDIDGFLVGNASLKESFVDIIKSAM

Consider `C[C@H]1[C@H](OC(=O)CCC(=O)O)O[C@@H]2O[C@@]3(C)CC[C@H]4[C@H](C)CC[C@@H]1[C@@]24OO3` [ATS, artesunate], for which, at PfEGF1‐α, the “DARTS; competition with APP photolabelling” value was “the PfEGF1‐α proteins became more resistant to proteolysis after incubation with ATS”. Also, the half-maximal inhibitory concentration entry at PfGAPDH, on PfLDH and at PfTIM was “the half‐maximal inhibitory concentrations were at low micromolar concentrations” throughout. The “OAT activity assay kit, absorbance at 340 nm” value at PfOAT is “ATS can significantly inhibit its enzyme activity in both heme‐activated and nonactivated states”.
